Data published in patent US11548849B2, “Alcohol derivatives as KV7 potassium channel openers” (H. Lundbeck A/S, priority 2019, dated 2023).

Target: T1, hKv7.2/hKv7.3 (Homo sapiens, UniProt O43525+O43526)
T1 construct: P2A self-cleaving peptide (between Kv7.3 and Kv7.2; the remnant would stay on the upstream protein) (C); expressed in transfected cells
Experiment: Thallium influx assay for potassium channel activation
Assay type: cell-based
Details: HEK-hKv7.2/hKv7.3 cells; FLIPR Potassium Assay kit; AUC readout normalized to a reference compound
Experimental: A synthesized cDNA fragment encoding human Kv7.3 and human Kv7.2 separated by a P2A sequence was inserted into the pcDNA5/FRT/TO vector using the BamHI and XhoI restriction sites. The construct was then transfected into HEK Flp-In 293 cells using Lipofectamine2000. The transfected cells were grown for 48 hours in DMEM containing 10% (v/v) FBS and 1% PenStrep and subsequently maintained under selection in DMEM containing 10% (v/v) FBS, 1% PenStrep and 200 ug/mL Hygromycin B at 37° C. in a humidified atmosphere of 5% CO2.
The thallium influx assay for potassium channel activation was performed analogously to a published procedure (C. D. Weaver, et al., J Biomol Screen 2004, 9, 671-677) using the FLIPR Potassium Assay kit (Molecular Devices). HEK-hKv7.2/hKv7.3 cells were plated onto 96-well, black-walled, clear-bottomed culture plates (Corning, Acton, Mass., USA) at a density of 80,000 cells/well (100 μl/well) if the cells were assayed the following day, or 40,000 cells/well (100 μl/well) if the cells were assayed two days after seeding.
On the assay day, the medium was removed after which 50 uL/well of test compound diluted to 2× final concentration in HBSS containing 20 mM HEPES, and 50 uL/well of 2× dye load buffer were added. The cells were then incubated for 60 min at room temperature in the dark. Chloride-free stimulation buffer containing Tl^+ and K^+ at 5× final concentration (5× concentration: 5 mM in both cases) and test compound at 1× final concentration, were prepared during the incubation. The cells were then assayed in a FDSS7000EX Functional Drug Screening System (Hamamatsu). Following 60 sec of baseline fluorescence signal reading at 0.1 Hz, and 10 sec at 1 Hz, 25 uL/well of stimulation buffer were added and the fluorescence continuously measured for 50 sec at 1 Hz followed, by 4 min at 0.1 Hz. Compound effect was quantified using AUC as readout and normalized to a reference compound, which was included on each plate.

In the case of `CC(C)(C)C(O)CC(=O)N[C@@H](COC(F)F)c1cccc(OC(F)F)c1` (single isomer, unassigned) [Example 1a], the EC50 is reported as 7600 nM.

Molecule `CC(C)(C)C(O)CC(=O)N[C@@H](COC(F)F)c1cccc(OC(F)F)c1` (single isomer, unassigned) [Example 1b] has an EC50 of 420 nM.

For `CCOC[C@H](NC(=O)CC(O)C(C)(C)C)c1cccc(OC(F)(F)F)c1` (single isomer, unassigned) [Example 2a], the EC50 was 10000 nM.

For `CCOC[C@H](NC(=O)CC(O)C(C)(C)C)c1cccc(OC(F)(F)F)c1` (single isomer, unassigned) [Example 2b], the EC50 was 1800 nM.

`O=C(CC(O)C1(C(F)(F)F)CC1)N[C@@H](COC(F)F)c1cccc(OC(F)F)c1` (single isomer, unassigned) [Example 3a] gave an EC50 of 2800 nM.

Molecule `O=C(CC(O)C1(C(F)(F)F)CC1)N[C@@H](COC(F)F)c1cccc(OC(F)F)c1` (single isomer, unassigned) [Example 3b] has an EC50 of 2400 nM.

For `O=C(CC(O)C1(C(F)(F)F)CC1)N[C@@H](COC(F)F)c1cccc(OC(F)(F)F)c1` (single isomer, unassigned) [Example 4a], the EC50 was 1700 nM.

Work on `O=C(CC(O)C1(C(F)(F)F)CC1)N[C@@H](COC(F)F)c1cccc(OC(F)(F)F)c1` (single isomer, unassigned) [Example 4b] yielded an EC50 of 2900 nM.

`O=C(CC(O)C1CC(F)(F)C1)N[C@@H](COC(F)F)c1cccc(OC(F)F)c1` (single isomer, unassigned) [Example 5a] was tested, and the EC50 was 1200 nM.

With `O=C(CC(O)C1CC(F)(F)C1)N[C@@H](COC(F)F)c1cccc(OC(F)F)c1` (single isomer, unassigned) [Example 5b] the EC50 was 4500 nM.

For `O=C(CC(O)C1CC(F)(F)C1)N[C@@H](COC(F)F)c1cccc(OC(F)(F)F)c1` (single isomer, unassigned) [Example 6a], the EC50 was 2500 nM.

Work on `O=C(CC(O)C1CC(F)(F)C1)N[C@@H](COC(F)F)c1cccc(OC(F)(F)F)c1` (single isomer, unassigned) [Example 6b] yielded an EC50 of 1100 nM.

Work on `CCC[C@H](NC(=O)CC(O)C1CC(F)(F)C1)c1cccc(OC(F)F)c1` (single isomer, unassigned) [Example 7a] yielded an EC50 of 4000 nM.

Molecule `CCC[C@H](NC(=O)CC(O)C1CC(F)(F)C1)c1cccc(OC(F)F)c1` (single isomer, unassigned) [Example 7b] has an EC50 of 25000 nM.

Work on `CCC1(C(O)CC(=O)N[C@@H](COC(F)F)c2cccc(OC(F)F)c2)CC1` (single isomer, unassigned) [Example 8a] yielded an EC50 of 4800 nM.

`CCC1(C(O)CC(=O)N[C@@H](COC(F)F)c2cccc(OC(F)F)c2)CC1` (single isomer, unassigned) [Example 8b] was tested, and the EC50 was 1200 nM.

`CC(O)(CC(=O)N[C@@H](COC(F)F)c1cccc(OC(F)F)c1)C1(F)CC1` (single isomer, unassigned) [Example 9a] gave an EC50 of 1500 nM.

`CC(O)(CC(=O)N[C@@H](COC(F)F)c1cccc(OC(F)F)c1)C1(F)CC1` (single isomer, unassigned) [Example 9b] was tested, and the EC50 was 9200 nM.

In the case of `CC(O)(CC(=O)N[C@@H](COC(F)F)c1cccc(OC(F)(F)F)c1)C1(F)CC1` (single isomer, unassigned) [Example 10a], the EC50 is reported as 660 nM.

In the case of `CC(O)(CC(=O)N[C@@H](COC(F)F)c1cccc(OC(F)(F)F)c1)C1(F)CC1` (single isomer, unassigned) [Example 10b], the EC50 is reported as 4100 nM.

Molecule `CC(O)(CC(=O)N[C@@H](COC(F)F)c1cccc(OC(F)(F)F)c1)C1CC1` (single isomer, unassigned) [Example 11a] has an EC50 of 5400 nM.

In the case of `CC(O)(CC(=O)N[C@@H](COC(F)F)c1cccc(OC(F)(F)F)c1)C1CC1` (single isomer, unassigned) [Example 11b], the EC50 is reported as 1700 nM.

Work on `CC(O)(CC(=O)N[C@@H](COC(F)F)c1cccc(OC(F)F)c1)CC(F)(F)F` (single isomer, unassigned) [Example 12a] yielded an EC50 of 1300 nM.

Work on `CC(O)(CC(=O)N[C@@H](COC(F)F)c1cccc(OC(F)F)c1)CC(F)(F)F` (single isomer, unassigned) [Example 12b] yielded an EC50 of 6200 nM.
